Reference: ChEMBL document CHEMBL4842362, “From virtual screening hits targeting a cryptic pocket in BACE-1 to a nontoxic brain permeable multitarget anti-Alzheimer lead with disease-modifying and cognition-enhancing effects” (Eur J Med Chem, 2021)
Converted amounts (≈) assume the structure as drawn. The source made the active and inactive calls. No cut-off for these calls is given here.

Assays:
Mus musculus [1] = experiment: In vivo inhibition of GSK3 beta in SAMP8 mouse assessed as reduction in tau phosphorylation at Ser 404 residue at 2 mg/kg, po measured after 4 weeks by western blot analysis; format: functional, organism-based
Mus musculus [2] = experiment: Effect on amyloid pathology in hippocampal tissue of SAMP8 mouse assessed as increase in neprilysin (Nep) gene expression at 2 mg/kg, po measured after 4 weeks by RT-PCR analysis; format: functional, organism-based
Mus musculus [3] = experiment: Effect on amyloid pathology in hippocampal tissue of SAMP8 mouse assessed as increase in insulin-degrading enzyme (Ide) gene expression at 2 mg/kg, po measured after 4 weeks by RT-PCR analysis; format: functional, organism-based
Mus musculus [4] = experiment: Effect on amyloid pathology in hippocampal tissue of SAMP8 mouse assessed as decrease in Bace-1 gene expression at 2 mg/kg, po measured after 4 weeks by RT-PCR analysis; format: functional, organism-based
Mus musculus [5] = experiment: Effect on amyloid pathology in hippocampal tissue of SAMP8 mouse assessed as increase in Adam10 gene expression at 2 mg/kg, po measured after 4 weeks by RT-PCR analysis; format: functional, organism-based
Mus musculus [6] = experiment: In vivo inhibition of BACE-1 in hippocampal tissue of SAMP8 mouse assessed as increase in sAPP alpha levels at 2 mg/kg, po measured after 4 weeks by western blot analysis; format: functional, organism-based; details: Hippocampus
Beta-secretase 1 = Beta-secretase 1 (Homo sapiens, UniProt P56817); experiment: Inhibition of human recombinant BACE-1 expressed in Escherichia coli using panvera peptide as a substrate incubated for 1 hr by fluorescence analysis
Acetylcholinesterase [7] = target: T1, Acetylcholinesterase (Homo sapiens, UniProt P22303); experiment: Potency index, ratio of rhein-huprine hybrid IC50 to test compound IC50 for inhibition of human recombinant AChE using acetylthiocholine iodide as a substrate preincubated for 20 mins followed by substrate addition by spectrophotometric analysis
Acetylcholinesterase [8] = target: T1, Acetylcholinesterase; experiment: Potency index, ratio of donepezil IC50 to test compound IC50 for inhibition of human recombinant AChE using acetylthiocholine iodide as a substrate preincubated for 20 mins followed by substrate addition by spectrophotometric analysis
Cholinesterase [9] = target: T2, Cholinesterase (Homo sapiens, UniProt P06276); experiment: Potency index, ratio of rhein-huprine hybrid IC50 to test compound IC50 for inhibition of human serum BChE using butyrylthiocholine iodide as a substrate preincubated for 20 mins followed by substrate addition by spectrophotometric analysis; format: cell-free
Cholinesterase [10] = target: T2, Cholinesterase; experiment: Potency index, ratio of huprine-Y IC50 to test compound IC50 for inhibition of human serum BChE using butyrylthiocholine iodide as a substrate preincubated for 20 mins followed by substrate addition by spectrophotometric analysis; format: cell-free
Cholinesterase [11] = target: T2, Cholinesterase; experiment: Potency index, ratio of donepezil IC50 to test compound IC50 for inhibition of human serum BChE using butyrylthiocholine iodide as a substrate preincubated for 20 mins followed by substrate addition by spectrophotometric analysis; format: cell-free
[12] = target: Amyloid-beta precursor protein (Homo sapiens) (UniProt P05067); experiment: Inhibition of amyloid beta (1 to 42) (unknown origin) aggregation in Escherichia coli BL21 (DE3) at 10 uM incubated overnight by thioflavin S based fluorescence analysis relative to control
[13] = target: Microtubule-associated protein tau (Homo sapiens) (UniProt P10636); experiment: Inhibition of tau aggregation (unknown origin) in Escherichia coli BL21 (DE3) at 10 uM incubated overnight by thioflavin S based fluorescence analysis relative to control
[14] = Antioxidant activity assessed as free radical scavenging activity at 500 uM incubated for 30 mins under dark condition by DPPH assay; format: functional
HT-22 = experiment: Neuroprotective activity against glutamate induced neuronal death in mouse HT-22 cells assessed as increase in cell viability at 1 to 25 uM by MTT assay; format: functional, cell-based; details: dose 1-25 µM
[15] = Neurotoxicity in mouse HT-22 cells assessed as decrease in cell viability at up to 25 uM by MTT assay; format: cell-based
[16] = Acute toxicity in zebra fish embryos assessed as lethality measured every 24 hrs for 72 hrs; parameters: species or system Danio rerio; details: zebrafish
[17] = Permeability of the compound in PBS/EtOH by PAMPA-BBB assay; format: ADME; details: read-out: permeability
[18] = Kinetic solubility of the compound in DMSO/PBS buffer measured after 2 hrs by nephalometric analysis; format: physicochemical; details: DMSO/PBS buffer, read-out: Kinetic_solubility
[19] = Toxicity in SAMP8 mouse assessed as mortality at 2 mg/kg, po for 4 weeks; format: organism-based; details: in vivo, 672 h
[20] = Toxicity in SAMP8 mouse assessed as toxic effects at 2 mg/kg, po for 4 weeks; format: organism-based; details: in vivo, 672 h
Mus musculus [21] = experiment: Cognitive enhancing effect in SAMP8 mouse assessed as improvement of short term retrieval by measuring discrimination index at 2 mg/kg, po administered for 4 weeks followed by 10 mins acquisition trail and measured after 2 hrs by novel object recognition test; format: functional, organism-based
Mus musculus [22] = experiment: Cognitive enhancing effect in SAMP8 mouse assessed as improvement of long term retrieval by measuring discrimination index at 2 mg/kg, po administered for 4 weeks followed by 10 mins acquisition trail and measured after 24 hrs by novel object recognition test; format: functional, organism-based
Mus musculus [23] = experiment: Cognitive enhancing effect in SAMP8 mouse assessed as reversal of spatial memory impairment by measuring discrimination index at 2 mg/kg, po administered for 4 weeks by object location test; format: functional, organism-based
Mus musculus [24] = experiment: In vivo inhibition of BACE-1 in hippocampal tissue of SAMP8 mouse assessed as reduction in sAPPbeta levels at 2 mg/kg, po measured after 4 weeks by Western blot analysis; format: functional, organism-based; details: Hippocampus
Mus musculus [25] = experiment: Modulation of oxidative stress in SAMP8 mouse assessed as increase in heme oxygenase 1 (Hmox1) gene expression in hippocampus tissue at 2 mg/kg, po measured after 4 weeks by RT-PCR analysis; format: functional, organism-based
Mus musculus [26] = experiment: Modulation of oxidative stress in SAMP8 mouse assessed as increase in cox-2 gene expression in hippocampus tissue at 2 mg/kg, po measured after 4 weeks by RT-PCR analysis; format: functional, organism-based
Mus musculus [27] = experiment: Effect on neuroinflammation in SAMP8 mouse assessed as decrease in IL-1 beta gene expression hippocampus tissue at 2 mg/kg, po measured after 4 weeks by RT-PCR analysis; format: functional, organism-based
Mus musculus [28] = experiment: Effect on neuroinflammation in SAMP8 mouse assessed as decrease in IL-6 gene expression hippocampus tissue at 2 mg/kg, po measured after 4 weeks by RT-PCR analysis; format: functional, organism-based
Mus musculus [29] = experiment: Effect on neuroinflammation in SAMP8 mouse assessed as decrease in TNF-alpha gene expression hippocampus tissue at 2 mg/kg, po measured after 4 weeks by RT-PCR analysis; format: functional, organism-based
Mus musculus [30] = experiment: Effect on neuroinflammation in SAMP8 mouse assessed as reduction in Cxcl10 gene expression hippocampus tissue at 2 mg/kg, po measured after 4 weeks by RT-PCR analysis; format: functional, organism-based
Mus musculus [31] = experiment: Effect on synaptic plasticity in SAMP8 mouse assessed as increase in PSD95 protein levels in hippocampus tissue at 2 mg/kg, po measured after 4 weeks by western blot analysis; format: functional, organism-based
Mus musculus [32] = experiment: Effect on synaptic plasticity in SAMP8 mouse assessed as increase in SYN protein levels in hippocampus tissue at 2 mg/kg, po measured after 4 weeks by western blot analysis; format: functional, organism-based
Acetylcholinesterase [33] = target: T1, Acetylcholinesterase
Description: Inhibition of human recombinant AChE using acetylthiocholine iodide as a substrate preincubated for 20 mins followed by substrate addition by spectrophotometric analysis

Cholinesterase [34] = target: T2, Cholinesterase
Description: Inhibition of human serum BChE using butyrylthiocholine iodide as a substrate preincubated for 20 mins followed by substrate addition by spectrophotometric analysis

T1 sequence (P22303 whole entry): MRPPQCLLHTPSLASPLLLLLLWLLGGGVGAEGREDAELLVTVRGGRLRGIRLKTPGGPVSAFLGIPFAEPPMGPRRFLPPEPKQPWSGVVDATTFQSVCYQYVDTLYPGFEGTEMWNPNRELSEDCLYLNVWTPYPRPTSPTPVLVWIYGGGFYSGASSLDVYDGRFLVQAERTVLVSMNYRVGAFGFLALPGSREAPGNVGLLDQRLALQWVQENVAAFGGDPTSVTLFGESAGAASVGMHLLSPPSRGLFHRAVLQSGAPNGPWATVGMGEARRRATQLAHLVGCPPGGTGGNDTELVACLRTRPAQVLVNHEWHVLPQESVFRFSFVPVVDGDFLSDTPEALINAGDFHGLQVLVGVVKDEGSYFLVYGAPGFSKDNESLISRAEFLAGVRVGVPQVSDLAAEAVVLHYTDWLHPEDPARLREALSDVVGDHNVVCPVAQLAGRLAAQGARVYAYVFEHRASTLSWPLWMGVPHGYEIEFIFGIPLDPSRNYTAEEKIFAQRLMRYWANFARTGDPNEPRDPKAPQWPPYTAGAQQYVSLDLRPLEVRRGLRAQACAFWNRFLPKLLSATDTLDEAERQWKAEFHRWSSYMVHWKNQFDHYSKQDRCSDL
T2 sequence (P06276 whole entry): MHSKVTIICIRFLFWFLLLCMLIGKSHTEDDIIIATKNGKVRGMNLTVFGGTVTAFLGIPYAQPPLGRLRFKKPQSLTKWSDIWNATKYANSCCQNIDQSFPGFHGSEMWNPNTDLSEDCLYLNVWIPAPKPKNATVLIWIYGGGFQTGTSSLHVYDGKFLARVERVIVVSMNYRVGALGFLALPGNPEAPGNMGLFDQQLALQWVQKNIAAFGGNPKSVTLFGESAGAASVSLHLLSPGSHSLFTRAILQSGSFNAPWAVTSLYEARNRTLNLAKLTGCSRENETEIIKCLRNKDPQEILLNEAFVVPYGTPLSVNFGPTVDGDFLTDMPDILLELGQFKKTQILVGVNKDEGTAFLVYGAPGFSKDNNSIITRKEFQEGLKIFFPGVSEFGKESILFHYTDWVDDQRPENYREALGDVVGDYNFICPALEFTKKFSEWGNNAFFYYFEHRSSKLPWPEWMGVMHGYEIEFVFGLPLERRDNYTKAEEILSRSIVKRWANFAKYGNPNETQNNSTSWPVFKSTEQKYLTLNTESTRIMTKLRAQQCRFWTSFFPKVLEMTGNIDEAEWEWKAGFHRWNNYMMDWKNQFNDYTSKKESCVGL
Beta-secretase 1, sequence (P56817 whole entry): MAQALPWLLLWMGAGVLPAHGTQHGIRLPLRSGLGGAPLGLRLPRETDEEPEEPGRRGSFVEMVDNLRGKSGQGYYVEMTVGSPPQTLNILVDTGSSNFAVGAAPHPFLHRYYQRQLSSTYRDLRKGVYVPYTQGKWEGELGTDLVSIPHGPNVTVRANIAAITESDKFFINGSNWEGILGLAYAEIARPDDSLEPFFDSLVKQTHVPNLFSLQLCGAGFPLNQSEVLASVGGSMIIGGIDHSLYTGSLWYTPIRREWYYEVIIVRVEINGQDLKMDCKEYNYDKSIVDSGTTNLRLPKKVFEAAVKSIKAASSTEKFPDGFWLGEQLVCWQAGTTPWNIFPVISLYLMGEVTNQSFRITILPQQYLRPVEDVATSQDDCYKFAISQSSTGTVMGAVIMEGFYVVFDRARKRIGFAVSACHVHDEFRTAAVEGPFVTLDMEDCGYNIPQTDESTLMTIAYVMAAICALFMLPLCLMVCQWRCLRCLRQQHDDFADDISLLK
Amyloid-beta precursor protein (Homo sapiens), sequence (P05067 whole entry): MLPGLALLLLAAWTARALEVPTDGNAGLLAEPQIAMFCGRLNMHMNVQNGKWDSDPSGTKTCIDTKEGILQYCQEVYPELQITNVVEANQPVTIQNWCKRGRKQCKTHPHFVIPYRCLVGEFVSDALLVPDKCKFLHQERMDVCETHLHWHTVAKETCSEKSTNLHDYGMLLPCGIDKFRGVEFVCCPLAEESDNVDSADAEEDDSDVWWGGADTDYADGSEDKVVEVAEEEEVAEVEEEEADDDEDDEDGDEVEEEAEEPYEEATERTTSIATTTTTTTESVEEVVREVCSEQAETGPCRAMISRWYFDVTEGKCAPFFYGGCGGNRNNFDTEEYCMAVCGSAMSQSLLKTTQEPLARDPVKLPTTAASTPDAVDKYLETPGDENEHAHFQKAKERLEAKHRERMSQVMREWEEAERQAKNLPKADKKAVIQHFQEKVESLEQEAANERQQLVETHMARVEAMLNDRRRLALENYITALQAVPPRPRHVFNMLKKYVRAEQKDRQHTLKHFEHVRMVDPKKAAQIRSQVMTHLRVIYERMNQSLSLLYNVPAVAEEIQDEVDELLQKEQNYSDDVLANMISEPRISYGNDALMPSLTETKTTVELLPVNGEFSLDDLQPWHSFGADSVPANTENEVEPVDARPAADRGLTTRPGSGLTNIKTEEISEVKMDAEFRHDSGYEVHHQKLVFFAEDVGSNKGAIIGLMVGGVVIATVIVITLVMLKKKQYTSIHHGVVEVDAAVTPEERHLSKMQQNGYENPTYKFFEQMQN
Microtubule-associated protein tau (Homo sapiens), sequence (P10636 whole entry): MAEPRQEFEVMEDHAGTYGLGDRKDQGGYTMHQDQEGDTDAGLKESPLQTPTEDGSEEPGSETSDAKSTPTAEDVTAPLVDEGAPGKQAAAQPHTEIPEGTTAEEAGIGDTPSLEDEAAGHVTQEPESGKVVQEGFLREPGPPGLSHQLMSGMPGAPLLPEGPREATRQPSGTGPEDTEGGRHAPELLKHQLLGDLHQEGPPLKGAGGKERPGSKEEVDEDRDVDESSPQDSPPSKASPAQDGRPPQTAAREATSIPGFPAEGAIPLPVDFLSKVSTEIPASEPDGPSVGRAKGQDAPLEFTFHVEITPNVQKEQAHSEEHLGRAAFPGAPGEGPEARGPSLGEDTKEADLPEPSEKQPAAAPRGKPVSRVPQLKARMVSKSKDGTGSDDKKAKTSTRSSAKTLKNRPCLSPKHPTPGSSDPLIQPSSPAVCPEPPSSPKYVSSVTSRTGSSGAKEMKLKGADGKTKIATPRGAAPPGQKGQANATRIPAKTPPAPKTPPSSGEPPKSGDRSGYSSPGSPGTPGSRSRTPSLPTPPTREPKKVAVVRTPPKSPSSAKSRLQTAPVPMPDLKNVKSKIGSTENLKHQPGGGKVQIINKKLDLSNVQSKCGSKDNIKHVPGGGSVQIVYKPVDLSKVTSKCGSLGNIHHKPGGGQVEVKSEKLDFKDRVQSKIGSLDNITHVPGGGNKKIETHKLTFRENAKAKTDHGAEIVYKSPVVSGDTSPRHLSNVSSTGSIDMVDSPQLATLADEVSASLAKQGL

CC1=CC2Cc3nc4cc(Cl)ccc4c(NCCCCCCCCCNC(=O)c4cc(O)cc(O)c4)c3C(C1)C2 (stereo unspecified)
inhibition (Mus musculus [1]): Active
Activity (Mus musculus [2]): Active
Activity (Mus musculus [3]): inactive
Activity (Mus musculus [4]): Active
Activity (Mus musculus [5]): Active
Activity (Mus musculus [6]): Active
IC50 (Beta-secretase 1): 2.71 µM
Ratio IC50 (Acetylcholinesterase [7]): < 9
Ratio IC50 (Acetylcholinesterase [8]): < 65
Ratio IC50 (Cholinesterase [9]): 7
Ratio IC50 (Cholinesterase [10]): 2
Ratio IC50 (Cholinesterase [11]): 79
inhibition [12]: 49.5%
inhibition [13]: 65.8%
Activity [14]: inactive
Activity (HT-22): inactive
Activity [15]: Non-Toxic
LC50 at 72 h [16]: > 100 µM
Papp [17]: 9.4 ×10⁻⁶ cm/s
solubility kinetic at 2 h [18]: 10.8 µg/mL (≈ 19.2 µM)
Activity [19]: Non-Toxic
Activity [20]: Non-Toxic
Activity (Mus musculus [21]): Active
Activity (Mus musculus [22]): Active
Activity (Mus musculus [23]): Active
Activity (Mus musculus [24]): Active
Activity (Mus musculus [25]): Active
Activity (Mus musculus [26]): inactive
Activity (Mus musculus [27]): Active
Activity (Mus musculus [28]): Active
Activity (Mus musculus [29]): Active
Activity (Mus musculus [30]): Active
Activity (Mus musculus [31]): Active
Activity (Mus musculus [32]): Active
IC50 (Acetylcholinesterase [33]): 0.00257 µM
IC50 (Cholinesterase [34]): 0.043 µM
